ChEMBL document CHEMBL5233217, “Modification of 7-piperazinylquinolone antibacterials to promising anticancer lead compounds: Synthesis and in vitro studies” (Eur J Med Chem, 2020)

Tests used:
A549 [1] = experiment: Anticancer activity against human A549 cells assessed as reduction in cell viability incubated for 72 hrs by MTT assay; assay type: functional, cell-based; conditions: A549, 72 h
HL-60 [2] = experiment: Anticancer activity against human HL-60 cells assessed as reduction in cell viability incubated for 72 hrs by MTT assay; assay type: functional, cell-based; conditions: HL-60, 72 h
HeLa = experiment: Anticancer activity against human HeLa cells assessed as reduction in cell viability incubated for 72 hrs by MTT assay; assay type: functional, cell-based
[3] = Cytotoxicity against Chinese hamster CHO cells assessed as reduction in cell viability by MTT assay; assay type: toxicity, cell-based, Cricetulus griseus
HL-60 [4] = experiment: Cytotoxicity against human HL-60 cells assessed as reduction in cell viability by MTT assay; assay type: functional, cell-based
L1210 = experiment: Cytotoxicity against mouse L1210 cells assessed as reduction in cell viability by MTT assay; assay type: functional, cell-based
[5] = system: Panel NCI-60 (60 carcinoma cell lines); experiment: Anticancer activity against human Panel NCI-60 (60 carcinoma cell lines) cells assessed as cell growth inhibition incubated for 48 hrs by sulforhodamine B assay; assay type: functional
SK-MEL3 = experiment: Anticancer activity against human SK-MEL3 cells assessed as reduction in cell viability incubated for 72 hrs by MTT assay; assay type: functional, cell-based; conditions: SK-MEL3, 72 h
MCF7 = experiment: Anticancer activity against human MCF7 cells assessed as reduction in cell viability incubated for 72 hrs by MTT assay; assay type: functional, cell-based; conditions: MCF7, 72 h
A-431 = experiment: Anticancer activity against human A-431 cells assessed as reduction in cell viability incubated for 72 hrs by MTT assay; assay type: functional, cell-based; conditions: A-431, 72 h
EJ = experiment: Anticancer activity against human EJ cells assessed as reduction in cell viability incubated for 72 hrs by MTT assay; assay type: functional, cell-based
KB = experiment: Anticancer activity against human KB cells assessed as reduction in cell viability incubated for 72 hrs by MTT assay; assay type: functional, cell-based
SW480 = experiment: Anticancer activity against human SW480 cells assessed as reduction in cell viability incubated for 72 hrs by MTT assay; assay type: functional, cell-based; conditions: SW480, 72 h
CT26 = experiment: Antitumor activity against mouse CT26 cells assessed as reduction in cell viability incubated for 4 hrs by MTT assay; assay type: functional, cell-based; conditions: CT26, 4 h
A549 [6] = experiment: Antitumor activity against human A549 cells assessed as reduction in cell viability incubated for 4 hrs by MTT assay; assay type: functional, cell-based; conditions: A549, 4 h

## CCn1cc(C(=O)O)c(=O)c2cc(F)c(N3CCN(C(=N)NS(=O)(=O)c4ccc(C(F)(F)F)cc4)CC3)cc21
A549 [1]
  IC50: 71 nM
HL-60 [2]
  IC50: 43 nM
HeLa
  IC50: 32 nM

## COc1ccc(/C=N/NC(=O)c2cn(C3CC3)c3cc(N4CCNCC4)c(F)cc3c2=O)cc1
[3]
  IC50: 25 µM
HL-60 [4]
  IC50: 25 µM
L1210
  IC50: 25 µM

## Cc1cc(C)c(S(=O)(=O)N2CCN(c3cc4c(cc3F)c(=O)c(C(=O)O)cn4C3CC3)CC2)c(C)c1
[5]
  GI50: 2630 nM

## CCn1cc(C(=O)O)c(=O)c2cc(F)c(N3CCN(CC(=O)c4ccccc4)CC3)cc21
[5]
  GI50: 22000 nM

## O=C(N/N=C/c1ccc(F)cc1)c1cn(C2CC2)c2cc(N3CCNCC3)c(F)cc2c1=O
[3]
  IC50: 25 µM
HL-60 [4]
  IC50: 25 µM
L1210
  IC50: 25 µM

## CCn1cc(C(=O)O)c(=O)c2cc(F)c(N3CCN(C(=N)NS(=O)(=O)c4ccccc4C(F)(F)F)CC3)cc21
A549 [1]
  IC50: 71 nM
HL-60 [2]
  IC50: 43 nM
HeLa
  IC50: 32 nM

## CCn1cc(C(=O)O)c(=O)c2cc(F)c(N3CCN(CC(=O)c4ccc(Cl)s4)CC3)cc21
SK-MEL3
  IC50: < 10 µM
MCF7
  IC50: < 10 µM
A-431
  IC50: < 10 µM
EJ
  IC50: < 10 µM
KB
  IC50: < 10 µM
SW480
  IC50: < 10 µM

## CCn1cc(C(=O)O)c(=O)c2cc(F)c(N3CCN(CP(c4ccccc4)c4ccccc4)CC3)cc21
CT26
  IC50: 150 µM
A549 [6]
  IC50: 150 µM

## CCn1cc(C(=O)O)c(=O)c2cc(F)c(N3CCN(CC(=O)c4ccc(OC)cc4)CC3)c(F)c21
[5]
  GI50: 22000 nM

## O=C(O)c1cn(C2CC2)c2cc(N3CCN(C/C(=N/O)c4ccc(Cl)s4)CC3)c(F)cc2c1=O
SK-MEL3
  IC50: < 10 µM
MCF7
  IC50: < 10 µM
A-431
  IC50: < 10 µM
EJ
  IC50: < 10 µM
KB
  IC50: < 10 µM
SW480
  IC50: < 10 µM

## CO/N=C(/CN1CCN(c2cc3c(cc2F)c(=O)c(C(=O)O)cn3C2CC2)CC1)c1ccc(Cl)s1
SK-MEL3
  IC50: < 10 µM
MCF7
  IC50: < 10 µM
A-431
  IC50: < 10 µM
EJ
  IC50: < 10 µM
KB
  IC50: < 10 µM
SW480
  IC50: < 10 µM

## COc1ccc(/C=N/NC(=O)c2cn(C3CC3)c3cc(N4CCNCC4)c(F)cc3c2=O)cc1O
[3]
  IC50: 25 µM
HL-60 [4]
  IC50: 25 µM
L1210
  IC50: 25 µM

## CCn1cc(C(=O)O)c(=O)c2cc(F)c(N3CCNCC3)nc21 [ENOXACIN]
SK-MEL3
  IC50: > 128 µM
MCF7
  IC50: > 128 µM
A-431
  IC50: > 128 µM
EJ
  IC50: > 128 µM
KB
  IC50: > 128 µM
SW480
  IC50: > 128 µM

## O=C(O)c1cn(C2CC2)c2cc(N3CCN(CP(=S)(c4ccccc4)c4ccccc4)CC3)c(F)cc2c1=O
CT26
  IC50: 150 µM
A549 [6]
  IC50: 150 µM

## CCn1cc(C(=O)O)c(=O)c2cc(F)c(N3CCN(C/C(=N/OC)c4ccc(Cl)s4)CC3)cc21
SK-MEL3
  IC50: < 10 µM
MCF7
  IC50: < 10 µM
A-431
  IC50: < 10 µM
EJ
  IC50: < 10 µM
KB
  IC50: < 10 µM
SW480
  IC50: < 10 µM

## N=C(NS(=O)(=O)c1cccc(Cl)c1)N1CCN(c2cc3c(cc2F)c(=O)c(C(=O)O)cn3C2CC2)CC1
A549 [1]
  IC50: 71 nM
HL-60 [2]
  IC50: 43 nM
HeLa
  IC50: 32 nM

## N=C(NS(=O)(=O)c1ccc(Cl)cc1)N1CCN(c2cc3c(cc2F)c(=O)c(C(=O)O)cn3C2CC2)CC1
A549 [1]
  IC50: 71 nM
HL-60 [2]
  IC50: 43 nM
HeLa
  IC50: 32 nM

## O=C(O)c1cn(C2CC2)c2cc(N3CCN(CP(=[Se])(c4ccccc4)c4ccccc4)CC3)c(F)cc2c1=O
CT26
  IC50: 150 µM
A549 [6]
  IC50: 150 µM

## CCn1cc(C(=O)O)c(=O)c2cc(F)c(N3CCN(CP(=O)(c4ccccc4)c4ccccc4)CC3)cc21
CT26
  IC50: 150 µM
A549 [6]
  IC50: 150 µM

## O=C(N/N=C/c1ccccc1O)c1cn(C2CC2)c2cc(N3CCNCC3)c(F)cc2c1=O
[3]
  IC50: 25 µM
HL-60 [4]
  IC50: 25 µM
L1210
  IC50: 25 µM

## CCn1cc(C(=O)O)c(=O)c2cc(F)c(N3CCN(CP(=S)(c4ccccc4)c4ccccc4)CC3)cc21
CT26
  IC50: 150 µM
A549 [6]
  IC50: 150 µM

## CCn1cc(C(=O)O)c(=O)c2cc(F)c(N3CCN(S(=O)(=O)c4ccc(Cl)cc4Cl)CC3)cc21
[5]
  GI50: 2630 nM

## CCn1cc(C(=O)O)c(=O)c2cc(F)c(N3CCN(S(=O)(=O)c4cccc5ccccc45)CC3)cc21
[5]
  GI50: 2630 nM

## O=C(N/N=C/c1ccccc1)c1cn(C2CC2)c2cc(N3CCNCC3)c(F)cc2c1=O
[3]
  IC50: 25 µM
HL-60 [4]
  IC50: 25 µM
L1210
  IC50: 25 µM

## CCn1cc(C(=O)O)c(=O)c2cc(F)c(N3CCN(C/C(=N/O)c4ccc(Cl)s4)CC3)nc21
SK-MEL3
  IC50: < 10 µM
MCF7
  IC50: < 10 µM
A-431
  IC50: < 10 µM
EJ
  IC50: < 10 µM
KB
  IC50: < 10 µM
SW480
  IC50: < 10 µM

## CCn1cc(C(=O)O)c(=O)c2cc(F)c(N3CCN(C(=N)NS(=O)(=O)c4ccccc4Cl)CC3)cc21
A549 [1]
  IC50: 71 nM
HL-60 [2]
  IC50: 43 nM
HeLa
  IC50: 32 nM
